Test results published in patent US10597388B2, “Pyridazinone herbicides” (FMC CORPORATION, priority 2014, dated 2020).

Legend:
Assay type in all cases: in vivo
kochia (Kochia scoparia) [1] = experiment: Test A greenhouse herbicide test, pre- and postemergence
How it was run: (§1)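 Visual injury ratings, 0 (no effect) to 100 (complete control), versus untreated plants after roughly 10 d in a greenhouse. Compounds, formulated in a surfactant-containing non-phytotoxic solvent, were sprayed on loam–sand soil after sowing (pre) or on one- to two-leaf plants 2–10 cm tall (post).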

[2] = test system: pigweed (Amaranthus retroflexus); experiment: as above
How it was run: as §1

corn (Zea mays) = experiment: as above; conditions: Postemergence
How it was run: as §1

[3] = test system: wheat (Triticum aestivum); experiment: as above; conditions: Postemergence
How it was run: as §1

[4] = test system: barnyardgrass (Echinochloa crus-galli); experiment: as above
How it was run: as §1

[5] = test system: ragweed (common ragweed, Ambrosia elatior); experiment: as above
How it was run: as §1

[6] = test system: blackgrass (Alopecurus myosuroides); experiment: Test A greenhouse herbicide test, postemergence; conditions: for Plant response rating, Blackgrass: 125 g ai/ha, 0 to 100 scale where 0 is no effect and 100 is complete control; for Blackgrass plant response rating: 500 g ai/ha, 0 to 100 scale, 0 is no effect, 100 is complete control
How it was run: (§2)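 Scores are visual injury ratings from 0 (no effect) to 100 (complete control) versus untreated plants, taken roughly 10 d after treatment in the greenhouse. Treatment was postemergence, on one- to two-leaf plants 2–10 cm high growing in a loam soil/sand mix.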

[7] = test system: galium (catchweed bedstraw, Galium aparine); experiment: Test A greenhouse herbicide test, postemergence
How it was run: as §2

kochia (Kochia scoparia) [8] = experiment: Test C greenhouse herbicide test, postemergence; conditions: for Plant response rating, Kochia: Postemergence; for Kochia plant response rating: postemergence, 62 g ai/ha
How it was run: (§3)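 Seedlings are raised in pots of peat moss–vermiculite medium with starter nutrients, then receive postemergence test chemical at the 1- to 4-leaf stage. They are kept in the greenhouse 13 to 15 d and scored visually versus controls, 0 meaning no effect and 100 complete control.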

[9] = test system: oat, wild (wild oat, Avena fatua); experiment: Test C greenhouse herbicide test, postemergence; conditions: for Plant response rating, Oat, Wild: Postemergence; for Oat, Wild plant response rating: postemergence, 62 g ai/ha
How it was run: as §3

[10] = test system: oilseed rape (Brassica napus); experiment: Test C greenhouse herbicide test, pre- and postemergence
How it was run: (§4)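 Visual 0–100 injury score (100 = complete control) taken against untreated controls after 13–15 d in greenhouse. Test chemicals, formulated in solvent plus surfactant, applied preemergence to seeds in loam–sand soil or postemergence to 1- to 4-leaf plants (2–18 cm).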

[11] = test system: crabgrass, large (large crabgrass, Digitaria sanguinalis); experiment: as above
How it was run: as §4

[12] = Postemergence, 125 g ai/ha, 0 to 100 scale where 0 is no effect and 100 is complete control
[13] = Postemergence, 500 g ai/ha, 0 to 100 scale, 0 is no effect, 100 is complete control
[14] = Preemergence, 125 g ai/ha, 0 to 100 scale where 0 is no effect and 100 is complete control
[15] = Preemergence, 500 g ai/ha, 0 to 100 scale where 0 is no effect and 100 is complete control
[16] = 125 g ai/ha, 0 to 100 scale where 0 is no effect and 100 is complete control
[17] = 500 g ai/ha, 0 to 100 scale, 0 is no effect, 100 is complete control
[18] = 125 g ai/ha, scale 0 to 100, 0 is no effect, 100 is complete control
[19] = 250 g ai/ha, scale 0 to 100, 0 no effect, 100 complete control, 13 to 15 d
[20] = scale 0 to 100, 0 no effect, 100 complete control
[21] = Postemergence, 125 g ai/ha, scale 0 to 100, 0 is no effect, 100 is complete control
[22] = Postemergence, 250 g ai/ha, scale 0 to 100, 0 no effect, 100 complete control, 13 to 15 d
[23] = Preemergence, 31 g ai/ha, scale 0 to 100, 0 is no effect, 100 is complete control
[24] = Preemergence, 62 g ai/ha, scale 0 to 100, 0 is no effect, 100 is complete control
[25] = Preemergence, 125 g ai/ha, scale 0 to 100, 0 is no effect, 100 is complete control
[26] = Preemergence, 250 g ai/ha, scale 0 to 100 (0 no effect, 100 complete control)
[27] = postemergence, 62 g ai/ha, scale 0 to 100, 0 no effect, 100 complete control
[28] = Postemergence, 500 g ai/ha, visual rating after approx. 10 d, 0 to 100 scale (0 no effect, 100 complete control)
[29] = 500 g ai/ha, visual rating after approx. 10 d, 0 to 100 scale (0 no effect, 100 complete control)

CC(=O)Oc1c(C)nn(C)c(=O)c1-c1ccc(F)c2ccccc12 [Compound 90]
Plant response rating, Kochia (kochia (Kochia scoparia) [1]; [12]): 100
Kochia plant response rating (kochia (Kochia scoparia) [1]; [13]): 100
Kochia plant response rating (kochia (Kochia scoparia) [1]; [14]): 70
Plant response rating, Kochia (kochia (Kochia scoparia) [1]; [15]): 100
Plant response rating, Pigweed [2, 12]: 100
Pigweed plant response rating [2, 13]: 100
Pigweed plant response rating [2, 14]: 100
Plant response rating, Pigweed [2, 15]: 100
Plant response rating, Corn (corn (Zea mays); [16]): 20
Corn plant response rating (corn (Zea mays); [17]): 30
Plant response rating, Wheat [3, 16]: 20
Wheat plant response rating [3, 17]: 30
Plant response rating, Barnyardgrass [4, 12]: 80
Barnyardgrass plant response rating [4, 13]: 100
Barnyardgrass plant response rating [4, 14]: 60
Plant response rating, Barnyardgrass [4, 15]: 100
Plant response rating, Ragweed [5, 12]: 100
Ragweed plant response rating [5, 13]: 100
Ragweed plant response rating [5, 14]: 90
Plant response rating, Ragweed [5, 15]: 100
Plant response rating, Blackgrass [6]: 70
Blackgrass plant response rating [6]: 90
Plant response rating, Galium [7, 16]: 100
Galium plant response rating [7, 17]: 100
Plant response rating, Kochia (kochia (Kochia scoparia) [8]; [18]): 100
Plant response rating, Kochia (kochia (Kochia scoparia) [8]; [19]): 100
Kochia plant response rating (kochia (Kochia scoparia) [8]; [20]): 100
Plant response rating, Oat, Wild [9, 18]: 90
Plant response rating, Oat, Wild [9, 19]: 95
Oat, Wild plant response rating [9, 20]: 70
Plant response rating, Oilseed Rape [10, 21]: 0
Plant response rating, Oilseed Rape [10, 22]: 5
Plant response rating, Oilseed Rape [10, 23]: 30
Plant response rating, Oilseed Rape [10, 24]: 35
Plant response rating, Oilseed Rape [10, 25]: 50
Oilseed Rape plant response rating [10, 26]: 90
Oilseed Rape plant response rating [10, 27]: 0
Plant response rating, Crabgrass, Large [11, 21]: 35
Plant response rating, Crabgrass, Large [11, 22]: 75
Plant response rating, Crabgrass, Large [11, 23]: 35
Plant response rating, Crabgrass, Large [11, 24]: 70
Plant response rating, Crabgrass, Large [11, 25]: 75
Crabgrass, Large plant response rating [11, 26]: 85
Crabgrass, Large plant response rating [11, 27]: 15

CC(=O)Oc1c(C#N)nn(C)c(=O)c1-c1c(C)ccc2ccccc12 [Compound 98]
Plant response rating, Kochia (kochia (Kochia scoparia) [1]; [12]): 30
Plant response rating, Kochia (kochia (Kochia scoparia) [1]; [28]): 60
Kochia plant response rating (kochia (Kochia scoparia) [1]; [14]): 20
Plant response rating, Kochia (kochia (Kochia scoparia) [1]; [15]): 40
Plant response rating, Pigweed [2, 12]: 100
Plant response rating, Pigweed [2, 28]: 100
Pigweed plant response rating [2, 14]: 100
Plant response rating, Pigweed [2, 15]: 100
Plant response rating, Corn (corn (Zea mays); [16]): 20
Plant response rating, Corn (corn (Zea mays); [29]): 20
Plant response rating, Wheat [3, 16]: 30
Plant response rating, Wheat [3, 29]: 30
Plant response rating, Barnyardgrass [4, 12]: 90
Barnyardgrass plant response rating [4, 13]: 90
Barnyardgrass plant response rating [4, 14]: 40
Plant response rating, Barnyardgrass [4, 15]: 100
Plant response rating, Ragweed [5, 12]: 100
Plant response rating, Ragweed [5, 28]: 100
Ragweed plant response rating [5, 14]: 60
Plant response rating, Ragweed [5, 15]: 90
Plant response rating, Blackgrass [6]: 30
Blackgrass plant response rating [6]: 30
Plant response rating, Galium [7, 16]: 100
Plant response rating, Galium [7, 29]: 100
Plant response rating, Kochia (kochia (Kochia scoparia) [8]; [18]): 60
Plant response rating, Kochia (kochia (Kochia scoparia) [8]; [19]): 80
Kochia plant response rating (kochia (Kochia scoparia) [8]; [20]): 20
Plant response rating, Oat, Wild [9, 18]: 95
Plant response rating, Oat, Wild [9, 19]: 100
Oat, Wild plant response rating [9, 20]: 80
Plant response rating, Oilseed Rape [10, 21]: 10
Plant response rating, Oilseed Rape [10, 22]: 25
Oilseed Rape plant response rating [10, 27]: 0
Plant response rating, Crabgrass, Large [11, 21]: 45
Plant response rating, Crabgrass, Large [11, 22]: 70
Crabgrass, Large plant response rating [11, 27]: 25
